# Where two headings read alike, the source gives them in different places.
# Legend:
# Format in all cases: cell-based
# [1] = target: T1, AVIL protein binding to actin (Homo sapiens, UniProt O75366); assay: Immunoprecipitation (MYC antibody) and Western blot (β-actin antibody) in 293T cells transfected with MYC tagged AVIL; settings: IC50 dose, 24 hrs, FIGS. 2A and 2B
# T1 construct: expressed in transfected cells; host or cells: 293T cells
# T1 sequence (O75366 1-819): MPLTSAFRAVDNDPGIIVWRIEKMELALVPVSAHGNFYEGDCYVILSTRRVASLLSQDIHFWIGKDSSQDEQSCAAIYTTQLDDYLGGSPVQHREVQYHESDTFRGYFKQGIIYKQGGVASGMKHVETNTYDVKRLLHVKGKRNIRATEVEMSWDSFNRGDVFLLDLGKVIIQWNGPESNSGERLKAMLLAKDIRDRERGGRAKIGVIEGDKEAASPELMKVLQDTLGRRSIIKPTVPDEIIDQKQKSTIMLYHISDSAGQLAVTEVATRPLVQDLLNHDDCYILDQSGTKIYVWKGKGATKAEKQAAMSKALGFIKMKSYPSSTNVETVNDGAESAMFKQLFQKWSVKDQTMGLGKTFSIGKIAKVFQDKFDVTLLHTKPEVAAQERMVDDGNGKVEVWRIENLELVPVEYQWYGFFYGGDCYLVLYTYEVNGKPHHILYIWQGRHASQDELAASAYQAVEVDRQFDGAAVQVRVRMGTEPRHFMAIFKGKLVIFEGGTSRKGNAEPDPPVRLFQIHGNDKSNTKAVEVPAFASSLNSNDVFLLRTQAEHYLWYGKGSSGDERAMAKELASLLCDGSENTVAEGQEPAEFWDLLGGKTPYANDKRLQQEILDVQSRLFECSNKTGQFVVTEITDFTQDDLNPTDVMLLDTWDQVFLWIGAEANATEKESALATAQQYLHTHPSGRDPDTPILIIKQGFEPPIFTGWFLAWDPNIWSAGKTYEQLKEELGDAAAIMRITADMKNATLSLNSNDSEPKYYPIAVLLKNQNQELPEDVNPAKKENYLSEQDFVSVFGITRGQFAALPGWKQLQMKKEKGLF
# Protocol: 293T cells were first transfected with MYC tagged AVIL. After 24 hrs, the cells were treated with the IC50 dose of the five compounds for 24 hrs. Immunoprecipitation was performed with MYC antibody, and Western blot was performed with β-actin antibody.
# 293T cells were first transfected with MYC tagged AVIL as follows: transfect pQCXIH-myc-AVIL plasmid in 6 well plate of 293T for 48 hrs. 200 ul opti-medium+7 ul GeneCellin (Polyplus transfection Co.)+4 ug plasmids in each well. Transfected AVIL cells were treated with the IC50 dose of the test compounds for 24 hrs. Protein extract was then prepared on ice by adding 1 ml IP lysis buffer+protease inhibitor+cocktail+PMSF, and let stand on ice for 30 min. Cells were then scraped into EP tubes and sonicated continuously for 5 sec with power setting 3. Tubes were then centrifuged in 4° C. at 13000 rpm for 20 min, and the upper aqueous phase was then transferred to pre-chilled tubes. Protein concentration was then determined using Bio-Rad protein assay. Preclear cell extracts were treated with 50 ul ProteinG/Sepharose per my lysate for 1 hr. Then 500 ug precleared cell extracts were taken and adjusted to 500 ul with lysis buffer for 2 ug myc antibody or IgG control and incubated at 4° C. overnight. Then, 25 ul ProteinG/Sepharose beads were added and incubated at 4° C. overnight. Beads were then washed four times with 1 ml IP wash buffer for 3 min, and spun at 1000 rpm to pellet beads. All wash buffer was removed with pipette, and 20 ul 2×SDS loading buffer was added and then boiled at 95° C. for 10 min to denature. This was centrifuged at 12000 rpm for 30 sec., and the supernatant was then transferred to a fresh tube and load for SDS-PAGE.
# Western blot was performed with R-actin antibody. To measure protein levels, cell lysates were resolved by denaturing gel electrophoresis, before electrotransfer to a Protran nitrocellulose membrane. The membrane was subjected to western blot analysis with antibodies against the proteins of interest. The following antibodies and dilutions were used: rabbit anti-AVIL (1:2000; Sigma SAB2100191).
# [2] = system: Immortalized human astrocytes; assay: MTT cell viability assay, astrocytes (non-cancer control); settings: for IC50: immortalized human astrocytes, MTT after three days
# Protocol: (§1) Different concentration of compounds were added to the cells. Three days later, a MTT assay (Sigma) was performed to monitor cell viability.
# (§2) In this example, samples of glioblastoma cells (U87) and astrocyte cells (non-cancer control) were exposed various disclosed compounds to determine the effectiveness of the compounds for inhibiting cell growth.
# [3] = system: Glioblastoma cell line U87 cells; assay: MTT cell viability assay, glioblastoma cells; settings: for IC50: Homo sapiens, U-87 MG, 72 h, U87 glioblastoma cells, MTT after three days
# Protocol: as §1, §2
# LIN28B = LIN28B gene expression by qRT-PCR in U87 cells; settings: IC50 concentration, relative to GAPDH, FIG. 3
# Protocol: U87 cells were treated at the IC50 concentration of the five test compounds. Cells were harvested. RNA was extracted using TRIzol reagent (Invitrogen) and quantified with Nanodrop (Thermo). cDNA was generated by AMV-RT kit (NEB), and a random hexamer primer. Real-time qPCR was carried out on the StepOne Plus system from Applied Biosystems using SYBR mix (Thermo). LIN28B expression was measured by qRT-PCR and is represented relative to GAPDH levels. […] The following primers were used for […] and GAPDH amplifications: […]
SMILES,disruption of AVIL protein binding to actin [1],"effect on astrocytes ([2]; FIG. 1 cell survival curves, astrocytes, varied doses)","IC50 ([2]; Homo sapiens, Astrocyte, 72 h)",IC50 ([2]; read-out: IC50 (astrocyte)),"concentration at which most if not all of the U87 cells were wiped out ([3]; FIG. 1 cell survival curves, U87)",IC50 [3],IC50 ([3]; value in nM),down-regulation of LIN28B gene expression (LIN28B)
"Cc1nc(N)nc(N2CCCC(CO)(CCCc3ccccc3)C2)c1C (stereo not drawn) [PLH1252, (1-(2-Amino-5,6-dimethylpyrimidin-4-yl)-3-(3-phenylpropyl)piperidin-3-yl)methanol]",disruption of AVIL protein binding to actin,no significant effect,45 µM,~80 µM,less than 1 μM,~1000 nM,~600 nM,down-regulation of LIN28B gene expression
"OCC1(CCCc2ccccc2)CCCN(c2ncnc3ccccc23)C1 (stereo not drawn) [PLH1295, (3-(3-Phenylpropyl)-1-(quinazolin-4-yl)piperidin-3-yl)methanol]",disruption of AVIL protein binding to actin,–,22 µM,30 µM,–,< 1000 nM,500 nM,down-regulation of LIN28B gene expression
"CCc1ncnc(N2CCCC(CO)(CCCc3ccccc3)C2)c1F (stereo not drawn) [PLH2002, (1-(6-Ethyl-5-fluoropyrimidin-4-yl)-3-(3-phenylpropyl)piperidin-3-yl)methanol]",–,–,1.1 µM,–,–,1500 nM,–,–
"Nc1ccnc(N2CCCC(CO)(CCCc3ccccc3)C2)n1 (stereo not drawn) [PLH2006, (1-(4-Aminopyrimidin-2-yl)-3-(3-phenylpropyl)piperidin-3-yl)methanol]",–,–,> 80 µM,–,–,> 80000 nM,–,–
"Nc1nccc(N2CCCC(COCc3ccccc3)C2)n1 (stereo not drawn) [PLH2027, 4-(3-((Benzyloxy)methyl)piperidin-1-yl)pyrimidin-2-amine]",–,–,~80 µM,–,–,~50000 nM,–,–
"Nc1nccc(N2CCC[C@H](COCc3ccccc3)C2)n1 [PLH2032, (S)-4-(3-((Benzyloxy)methyl)piperidin-1-yl)pyrimidin-2-amine]",–,–,~40 µM,–,–,4300 nM,–,–
"Nc1nccc(N2CCC[C@@H](COCc3ccccc3)C2)n1 [PLH2040, (R)-4-(3-((Benzyloxy)methyl)piperidin-1-yl)pyrimidin-2-amine]",–,–,> 80 µM,–,–,2800 nM,–,–
"Cc1ncnc(N2CCCC(CO)(CCCc3ccccc3)C2)c1C (stereo not drawn) [PLH2056, (1-(5,6-Dimethylpyrimidin-4-yl)-3-(3-phenylpropyl)piperidin-3-yl)methanol]",disruption of AVIL protein binding to actin,–,~80 µM,–,–,< 2500 nM,–,down-regulation of LIN28B gene expression
"OCC1(CCCc2ccccc2)CCCN(c2ccncn2)C1 (stereo not drawn) [PLH2062, (3-(3-Phenylpropyl)-1-(pyrimidin-4-VI)piperidin-3-yl)methanol]",–,–,> 80 µM,–,–,~30000 nM,–,–
"Cc1c(-c2ccccc2)ncnc1N1CCCC(CO)(CCCc2ccccc2)C1 (stereo not drawn) [PLH2063, (1-(5-methyl-6-phenylpyrimidin-4-yl)-3-(3-phenylpropyl)piperidin-3-yl)methanol]",–,–,~80 µM,–,–,~80000 nM,–,–
"c1ccc(COCC2CCCN(c3ncnc4ccccc34)C2)cc1 (stereo not drawn) [PLH2069, 4-(3-((Benzyloxy)methyl)piperidin-1-yl)quinazoline]",disruption of AVIL protein binding to actin,–,–,–,–,–,–,down-regulation of LIN28B gene expression
"OCC1(CCCc2ccccc2)CCCN(c2ncnc3cc(Cl)ccc23)C1 (stereo not drawn) [PLH2074, (1-(7-Chloroquinazolin-4-yl)-3-(3-phenylpropyl)piperidin-3-yl)methanol]",–,–,~15 µM,–,–,~2000 nM,–,–

# From US20220213055A1, “SUBSTITUTED (PIPERIDIN-1-YL)ARYL ANALOGUES FOR MODULATING AVIL ACTIVITY” (University of Virginia Patent Foundation, priority 2019, published 2022)
